Data: patent US5989844A, “Method for evaluating drug metabolism and reagent compositions therefor” (Pfizer Inc., priority 1997, dated 1999)

How the values were obtained:
[1] = molecular target: CYP2D6 (Homo sapiens, UniProt P10635); test: CYP2D6-mediated metabolism: substrate disappearance in PM human liver microsome HHM-0116 supplemented with recombinant CYP2D6-expressing microsome; conditions: microsomes, 1 μM substrate, 60 min incubation
Procedure: a) CYP2D6-mediated metabolism
The pH of the solution was 7.4. The incubation temperature was 37° C. At specific incubation times (0, 5, 10, 30, 60 minutes), an aliquot of 100 μl was withdrawn from the reaction mixture and mixed with 1 ml of ACN containing 5 ng/ml (2S, 3S)-3-(2-methoxybenzylamino)-2-diphenylmethyl-1-azabicyclo[2,2,2] octane as an internal standard. Protein was subsequently precipitated by centrifugation (1,800×g for 10 min). and the resulting supernatant was taken, evaporated and dissolved in 100 μl of 60% ACN. Concentrations of substrates and products in the sample solutions were analyzed with a Sciex API-III mass spectrometer linked with a Hewlett-Packard HP1090 HPLC system. A volume of 10 μl of the sample portion was injected to the HPLC system equipped with a Tosoh ODS-80Ts column manufactured by Tosoh (3.2×15 mm). Mobile phases comprised 80% acetonitrile(ACN) and 10 mM ammonium acetate and the elution was isocratic with a flow rate of 0.2 mlimin. The effluent from the HPLC column was introduced into the atmospheric pressure ionization source via an ion spray interface with splitting the effluent. The ion spray interface was operated at 5000 volt in a positive ion mode. Collision gas (argon) thickness (CGT), curtain gas (N2) and Neblizer gas (air) was 300×10^13 molecules/cm^2, 0.6 liter/minute and 40 PSI, respectively. The Q2 rod offset voltage (R2) was 0-6 V. The compounds were detected by multiple reacting monitoring (MRM) detection in the API-III mass spectrometer. The MS-MS were generally the combination of precursor and product. […] Concentrations of the remaining substrates in each sample solution (%-remaining) were plotted against the desired incubation times (FIG. 1(a), (c), (e), (g), (i), (k)).

[2] = molecular target: CYP2C19 (Homo sapiens, UniProt P33261); test: S-mephenytoin hydroxylation activity; format: biochemical; conditions: 100 μM S-(+)-Mephenytoin, pH 7.4, 37 °C
Procedure: As used herein, "S-mephenytoin hydroxylation activity" means the activity of 4'hydroxylation of S-mephenytoin as measured by HPLC-MS.
The reagent compositions of this invention, PM microsome (i.e., HHM0102), normal human liver microsomes mixture (i.e., HLM mix-A, and HLM mix-B, and (CYP2C19 0.1 mg/ml) were tested for hydroxymephenytoin generation activity which is a known property of microsome obtained from a normal metabolizer.
HHM-0102 microsomes (1.0 mg protein/ml) were mixed with a total of 0.3 mg protein/ml of CYP2C19 microsomes and the control microsomes with various ratios. […] Hydroxy mephenytoin which was generated in samples were analyzed by LC/MS/MS.

Sequence of CYP2D6 (P10635 whole entry): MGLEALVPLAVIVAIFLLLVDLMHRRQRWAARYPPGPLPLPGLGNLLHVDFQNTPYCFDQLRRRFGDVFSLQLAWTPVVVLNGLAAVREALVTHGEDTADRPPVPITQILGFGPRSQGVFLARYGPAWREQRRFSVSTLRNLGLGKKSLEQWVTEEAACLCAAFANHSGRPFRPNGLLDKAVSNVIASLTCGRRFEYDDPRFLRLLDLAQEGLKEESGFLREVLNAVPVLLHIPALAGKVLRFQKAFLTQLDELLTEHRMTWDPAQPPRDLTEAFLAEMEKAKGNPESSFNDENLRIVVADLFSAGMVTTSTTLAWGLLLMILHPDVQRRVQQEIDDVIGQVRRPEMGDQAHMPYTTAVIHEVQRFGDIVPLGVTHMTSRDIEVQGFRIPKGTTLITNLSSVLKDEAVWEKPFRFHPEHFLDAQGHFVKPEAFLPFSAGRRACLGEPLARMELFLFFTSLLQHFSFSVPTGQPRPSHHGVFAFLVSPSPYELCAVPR

Molecule | half-life at 1 µM ([1]; pH 7.4, T1/2, HHM0116 + 0 mg/ml 2D6 (control microsome)) [min] | half-life at 1 µM ([1]; pH 7.4, T1/2, HHM0116 + 0.1 mg/ml recombinant CYP2D6 microsome) [min] | half-life at 1 µM ([1]; pH 7.4, T1/2, HHM0116 + 0.5 mg/ml recombinant CYP2D6 microsome) [min] | half-life at 1 µM ([1]; pH 7.4, T1/2, HHM0116 + 1.0 mg/ml recombinant CYP2D6 microsome) [min] | S-mephenytoin hydroxylation Activity [2] [pmol/min/mg]
CC(C)NCC(O)COc1cccc2ccccc12 (centres unmarked) [Propranolol, propranolol] | 301 | 70.2 | 15 | 5.4 | 
CYP2C19 0.1 mg/ml: CYP2C19 microsomes at 0.1 mg/ml, tested alone (protein, UniProt P33261 1-490, looked up, microsomes, CYP2C19 microsomes at 0.1 mg/ml, tested alone) Cytochrome P450 2C19: MDPFVVLVLCLSCLLLLSIWRQSSGRGKLPPGPTPLPVIGNILQIDIKDVSKSLTNLSKIYGPVFTLYFGLERMVVLHGYEVVKEALIDLGEEFSGRGHFPLAERANRGFGIVFSNGKRWKEIRRFSLMTLRNFGMGKRSIEDRVQEEARCLVEELRKTKASPCDPTFILGCAPCNVICSIIFQKRFDYKDQQFLNLMEKLNENIRIVSTPWIQICNNFPTIIDYFPGTHNKLLKNLAFMESDILEKVKEHQESMDINNPRDFIDCFLIKMEKEKQNQQSEFTIENLVITAADLLGAGTETTSTTLRYALLLLLKHPEVTAKVQEEIERVIGRNRSPCMQDRGHMPYTDAVVHEVQRYIDLIPTSLPHAVTCDVKFRNYLIPKGTTILTSLTSVLHDNKEFPNPEMFDPRHFLDEGGNFKKSNYFMPFSAGKRICVGEGLARMELFLFLTFILQNFNLKSLIDPKDLDTTPVVNGFASVPPFYQLCFIPV |  |  |  |  | 18.110
